Laboratory results reported in ChEMBL document CHEMBL1201862, “PubChem BioAssay data set” (2004).
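1) Cells in 96-well plates. 2) Compound, 48 h, 5 concentrations. 3) Linear interpolation between surrounding doses. 4) Unreached endpoint = highest concentration. The concentration for 50% growth inhibition is given as GI50.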 Active and inactive are the calls of the source. Cut-off read from the data, not from the text of the source: active = GI50 up to about 1.1 µM and inactive = higher.

How the values were obtained:
Assay in all cases: NCI tumour cell line growth inhibition, 48 h
786-0 = tested on: 786-0
A498 = tested on: A498
CAKI-1 = tested on: CAKI-1
HOP-92 = tested on: HOP-92
LOX IMVI = tested on: LOX IMVI
M14 = tested on: M14
Malme-3M = tested on: Malme-3M
NCI-H23 = tested on: NCI-H23
OVCAR-4 = tested on: OVCAR-4
OVCAR-8 = tested on: OVCAR-8
PC-3 = tested on: PC-3
SF-539 = tested on: SF-539
SK-MEL-28 = tested on: SK-MEL-28
U-251 = tested on: U-251
UACC-257 = tested on: UACC-257
HL-60 = tested on: HL-60
MOLT-4 = tested on: MOLT-4
OVCAR-5 = tested on: OVCAR-5
SNB-75 = tested on: SNB-75
SR = tested on: SR

Structure (SMILES)	GI50 (786-0)	GI50 (A498)	GI50 (CAKI-1)	GI50 (HOP-92)	GI50 (LOX IMVI)	GI50 (M14)	GI50 (Malme-3M)	GI50 (NCI-H23)	GI50 (OVCAR-4)	GI50 (OVCAR-8)	GI50 (PC-3)	GI50 (SF-539)	GI50 (SK-MEL-28)	GI50 (U-251)	GI50 (UACC-257)	GI50 (HL-60)	GI50 (MOLT-4)	GI50 (OVCAR-5)	GI50 (SNB-75)	GI50 (SR)
CCNc1ccc2c(c1)C(=O)N(OS(C)(=O)=O)C2=O	34.1 µM (inactive)	> 100 µM (inactive)	70 µM (inactive)	> 100 µM (inactive)	38.3 µM (inactive)	42.2 µM (inactive)	30.3 µM (inactive)	> 100 µM (inactive)	42 µM (inactive)	> 100 µM (inactive)	> 100 µM (inactive)	22.4 µM (inactive)	57.5 µM (inactive)	> 100 µM (inactive)	> 100 µM (inactive)					
CC(C)C(=S)N(C)O	18.3 µM (inactive)	19.1 µM (inactive)	19.9 µM (inactive)	47.8 µM (inactive)	11.8 µM (inactive)	21.6 µM (inactive)	53.7 µM (inactive)	29.8 µM (inactive)	9.89 µM (inactive)	13.9 µM (inactive)		25.6 µM (inactive)	37.6 µM (inactive)	28.4 µM (inactive)	29.1 µM (inactive)	1.35 µM (inactive)	0.809 µM (active)	> 65.5 µM (inactive)	22.4 µM (inactive)	0.481 µM (active)
CCOC(=O)C[C@@H](C)[C@]1(C(=O)OC)CCCC1=O	> 70.6 µM (inactive)	> 100 µM (inactive)	> 100 µM (inactive)	> 100 µM (inactive)	> 47.1 µM (inactive)	> 100 µM (inactive)	> 100 µM (inactive)	> 71.9 µM (inactive)	> 100 µM (inactive)	> 100 µM (inactive)		> 100 µM (inactive)	> 100 µM (inactive)	> 100 µM (inactive)	> 100 µM (inactive)	> 100 µM (inactive)	> 100 µM (inactive)	> 100 µM (inactive)	> 100 µM (inactive)	27.9 µM (inactive)
COC(=O)CC1NC(=O)C1C(C)(OC)OC (stereo not drawn)	> 100 µM (inactive)	> 100 µM (inactive)			> 100 µM (inactive)	> 100 µM (inactive)	> 100 µM (inactive)	> 100 µM (inactive)	> 100 µM (inactive)	> 100 µM (inactive)		> 100 µM (inactive)	> 100 µM (inactive)	> 100 µM (inactive)	> 100 µM (inactive)	> 100 µM (inactive)	> 100 µM (inactive)		30.3 µM (inactive)	> 100 µM (inactive)
CC(=O)OC1COC(Nc2ccc(C(C)=O)cc2)C(OC(C)=O)C1OC(C)=O (stereo not drawn)	> 100 µM (inactive)	> 100 µM (inactive)	> 100 µM (inactive)	> 100 µM (inactive)	> 100 µM (inactive)	> 100 µM (inactive)	> 100 µM (inactive)	> 100 µM (inactive)	> 100 µM (inactive)	> 100 µM (inactive)		> 100 µM (inactive)	> 100 µM (inactive)	> 100 µM (inactive)	> 100 µM (inactive)		> 100 µM (inactive)		> 100 µM (inactive)	> 100 µM (inactive)
CCOC(OC1=CCCC1)C(C)[Se]c1ccccc1 (stereo not drawn)	19.1 µM (inactive)	18.2 µM (inactive)	65.8 µM (inactive)	51.2 µM (inactive)	14.7 µM (inactive)	36.4 µM (inactive)	32.8 µM (inactive)	26.9 µM (inactive)	44.2 µM (inactive)	39.5 µM (inactive)		23.8 µM (inactive)	42.1 µM (inactive)	16.3 µM (inactive)	36 µM (inactive)	14.6 µM (inactive)	22.3 µM (inactive)	28.9 µM (inactive)	39.3 µM (inactive)	14.2 µM (inactive)
CC(=O)O/N=C/c1ncccc1OC(C)=O	> 100 µM (inactive)	> 100 µM (inactive)	> 100 µM (inactive)	> 100 µM (inactive)	> 100 µM (inactive)	> 100 µM (inactive)	> 100 µM (inactive)	> 100 µM (inactive)	> 100 µM (inactive)	> 100 µM (inactive)		> 100 µM (inactive)	> 100 µM (inactive)	> 100 µM (inactive)	> 100 µM (inactive)	> 100 µM (inactive)	> 100 µM (inactive)	> 100 µM (inactive)	> 100 µM (inactive)	> 100 µM (inactive)
COC1OC2COC(c3ccccc3)OC2C(O)C1Br (stereo not drawn)	> 100 µM (inactive)	> 100 µM (inactive)	> 100 µM (inactive)	> 100 µM (inactive)	> 100 µM (inactive)	> 100 µM (inactive)	> 100 µM (inactive)	> 100 µM (inactive)	> 100 µM (inactive)	> 100 µM (inactive)		> 100 µM (inactive)	> 100 µM (inactive)	> 100 µM (inactive)	> 100 µM (inactive)	> 100 µM (inactive)	> 100 µM (inactive)	> 100 µM (inactive)		> 100 µM (inactive)
NS(=O)(=O)c1nnc(NS(=O)(=O)c2ccc(Cl)cc2)s1	> 100 µM (inactive)	> 100 µM (inactive)	> 100 µM (inactive)	> 100 µM (inactive)	> 100 µM (inactive)	> 100 µM (inactive)	> 100 µM (inactive)	> 100 µM (inactive)	> 100 µM (inactive)	> 100 µM (inactive)			> 100 µM (inactive)	> 100 µM (inactive)	> 100 µM (inactive)		> 100 µM (inactive)	> 100 µM (inactive)		> 100 µM (inactive)
O=[N+]([O-])c1ccc(CSC2=C(c3ccc(Cl)cc3)S/C(=C3\SC(SCc4ccc([N+](=O)[O-])cc4)=C(c4ccc(Cl)cc4)S3)S2)cc1	> 100 µM (inactive)	> 100 µM (inactive)	> 100 µM (inactive)	< 0.01 µM (active)	> 100 µM (inactive)	> 100 µM (inactive)	> 100 µM (inactive)	> 100 µM (inactive)	> 100 µM (inactive)	> 100 µM (inactive)	> 100 µM (inactive)	> 100 µM (inactive)	> 100 µM (inactive)	> 100 µM (inactive)	> 100 µM (inactive)		> 100 µM (inactive)	> 100 µM (inactive)		
Clc1ccc(-c2cn3c(nc4ccccc43)c(/C=C/c3ccco3)n2)cc1	30.3 µM (inactive)	29.5 µM (inactive)		16.5 µM (inactive)	33 µM (inactive)	58.1 µM (inactive)	70.3 µM (inactive)	31.4 µM (inactive)	25.3 µM (inactive)			71.1 µM (inactive)	57.9 µM (inactive)	28.2 µM (inactive)	50.6 µM (inactive)	12.5 µM (inactive)		> 100 µM (inactive)	18.4 µM (inactive)	17.9 µM (inactive)
Cn1c(=O)c2[nH]c(Nc3cccc(Cl)c3)nc2n(C)c1=O	4.4 µM (inactive)		4.75 µM (inactive)	2.78 µM (inactive)	7.13 µM (inactive)	5.6 µM (inactive)	3.65 µM (inactive)	2.63 µM (inactive)	4.05 µM (inactive)	6.17 µM (inactive)	4.11 µM (inactive)		5.42 µM (inactive)		4.18 µM (inactive)	3.31 µM (inactive)	3.13 µM (inactive)		4.86 µM (inactive)	
COc1cc(/C=C2\[C@H]3c4c(c(OC)c(C)c(OC)c4OC)CC(C(=O)N2Cc2ccccc2)N3C)c(OC)c(C)c1OC	18.1 µM (inactive)	27 µM (inactive)	30.3 µM (inactive)	19.9 µM (inactive)	18.4 µM (inactive)	18.1 µM (inactive)	21.9 µM (inactive)	34.3 µM (inactive)	16.1 µM (inactive)	38.5 µM (inactive)		19.3 µM (inactive)	25.4 µM (inactive)	19.5 µM (inactive)	21 µM (inactive)	15.7 µM (inactive)	19.7 µM (inactive)	20.6 µM (inactive)	25.4 µM (inactive)	21.2 µM (inactive)
CN1N=C2c3ccccc3CC[C@H]2C1c1cccc(O)c1 (stereo partly drawn)	> 100 µM (inactive)	> 100 µM (inactive)		> 100 µM (inactive)	> 100 µM (inactive)	> 100 µM (inactive)	0.463 µM (active)	> 100 µM (inactive)	75.9 µM (inactive)	> 100 µM (inactive)		> 100 µM (inactive)	> 100 µM (inactive)	> 100 µM (inactive)	> 100 µM (inactive)	> 100 µM (inactive)	> 100 µM (inactive)	> 100 µM (inactive)		> 100 µM (inactive)
COc1cc2nc(Sc3c([N+](=O)[O-])ncn3C)[nH]c2cc1OC	71 µM (inactive)	78 µM (inactive)	4.47 µM (inactive)	16.5 µM (inactive)	41.6 µM (inactive)	87.5 µM (inactive)	56.2 µM (inactive)	26.1 µM (inactive)	38.5 µM (inactive)	15.1 µM (inactive)		18.6 µM (inactive)	20.5 µM (inactive)	31.3 µM (inactive)	28.6 µM (inactive)		12.5 µM (inactive)	98.6 µM (inactive)	28.4 µM (inactive)	13.3 µM (inactive)
CCCCCCCC[N+](C)(C)Cc1ccc(C[N+](C)(C)CCCCCCCC)cc1	> 100 µM (inactive)	38.1 µM (inactive)	45.4 µM (inactive)	32.7 µM (inactive)	84.5 µM (inactive)	85.9 µM (inactive)	95.3 µM (inactive)	4.55 µM (inactive)	18.6 µM (inactive)	15.6 µM (inactive)			> 100 µM (inactive)	6.53 µM (inactive)	41.9 µM (inactive)	36.4 µM (inactive)	43.9 µM (inactive)	> 100 µM (inactive)	15.8 µM (inactive)	> 100 µM (inactive)
